We go through 23 molecules from patent US8530493B2, “Indolopyridines as Eg5 kinesin modulators” (4SC AG, priority 2006, dated 2013).

Molecules are shown by their SMILES. A value given as a limit tells only on which side of the number the result lay.

The subject of the assay is RKO p21 uninduced (proliferating) colon adenocarcinoma cells. In words: Alamar Blue cell viability assay, RKO p21 uninduced (proliferating). In kind it is cell-based. The conditions noted are these: Homo sapiens, Table B3, anti-proliferative/cytotoxic activity, 72 hours, read-out: −log EC50 RKO p21 uninduced (proliferating) (converted). An outline of the steps:
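Viability read by Alamar Blue fluorescence (ex 544, em 590 nm), normalised to untreated wells, after 72 h, 37° C, 5% CO2 compound exposure in triplicate. Cells were uninduced (no Ponasterone A), proliferating RKO colon carcinoma p27 or p21 subclones in DMEM with 10% FCS; values are −log EC50 (mol/l).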
(Resazurin is reduced to fluorescent resorufin, in cell work by metabolically active cells.)

Usually EC50 stands for the concentration that produces a half-maximal response. Turning to `C[C@@]12Cc3c([nH]c4ccc(OC(F)F)cc34)[C@@H](c3cccc(O)c3)N1C(=O)N(CCNCCO)C2=O` (racemic) [Example 285, (3aSR,10RS)-6-(1,1-Difluoro-methoxy)-2-[2-(2-hydroxy-ethylamino)-ethyl]-10-(3-hydroxy-phenyl)-3a-methyl-3a,4,9,10-tetrahydro-2,9,10a-triaza-cyclopenta[b]fluorene-1,3-dione], the 50% effective concentration (EC50) was 39.8 to 251 nM.

For the molecule `COCCNCCN1C(=O)N2[C@H](c3cccc(O)c3)c3[nH]c4cc(F)c(OC)cc4c3C[C@@]2(C)C1=O` (racemic) [Example 253, (3aSR,10RS)-7-Fluoro-10-(3-hydroxy-phenyl)-6-methoxy-2-[2-(2-methoxy-ethylamino)-ethyl]-3a-methyl-3a,4,9,10-tetrahydro-2,9,10a-triaza-cyclopenta[b]fluorene-1,3-dione], the 50% effective concentration (EC50) was 39.8 to 251 nM.

On to `CCN(CCO)CCN1C(=O)N2[C@H](c3cccc(O)c3)c3[nH]c4ccc(OC(F)F)cc4c3C[C@@]2(C)C1=O` (racemic) [Example 277, (3aSR,10RS)-6-(1,1-Difluoro-methoxy)-2-{2-[ethyl-(2-hydroxy-ethyl)-amino]-ethyl}-10-(3-hydroxy-phenyl)-3a-methyl-3a,4,9,10-tetrahydro-2,9,10a-triaza-cyclopenta[b]fluorene-1,3-dione], for which the EC50 was 39.8 to 251 nM.

Take `CCN(CCO)CCN1C(=O)N2[C@H](c3cccc(O)c3)c3[nH]c4cc(F)c(Cl)cc4c3C[C@@]2(C)C1=O` (racemic) [Example 349, (3aSR,10RS)-6-Chloro-2-{2-[ethyl-(2-hydroxy-ethyl)-amino]-ethyl}-7-fluoro-10-(3-hydroxy-phenyl)-3a-methyl-3a,4,9,10-tetrahydro-2,9,10a-triaza-cyclopenta[b]fluorene-1,3-dione]: the concentration giving a half-maximal response (EC50) was 39.8 to 251 nM.

As to `C[C@@]12Cc3c([nH]c4ccc(Br)cc34)[C@@H](c3cccc(O)c3)N1C(=O)N(CCCNC1CCC1)C2=O` (racemic) [Example 369, (3aSR,10RS)-6-Bromo-2-(3-cyclobutylamino-propyl)-10-(3-hydroxy-phenyl)-3a-methyl-3a,4,9,10-tetrahydro-2,9,10a-triaza-cyclopenta[b]fluorene-1,3-dione], the half-maximal effective concentration (EC50) was not above 39.8 nM.

As for `COc1ccc2[nH]c3c(c2c1F)C[C@@]1(C)C(=O)N(CCNC2CCC2)C(=O)N1[C@@H]3c1cccc(O)c1` (racemic) [Example 413, (3aSR,10RS)-2-(2-Cyclobutylamino-ethyl)-5-fluoro-10-(3-hydroxy-phenyl)-6-methoxy-3a-methyl-3a,4,9,10-tetrahydro-2,9,10a-triaza-cyclopenta[b]fluorene-1,3-dione], the EC50 was 39.8 to 251 nM.

With `CCOc1ccc2[nH]c3c(c2c1)C[C@@]1(C)C(=O)N(CCCN2CCC2)C(=O)N1[C@@H]3c1cccc(O)c1` (racemic) [Example 198, (3aSR,10RS)-2-(3-Azetidin-1-yl-propyl)-6-ethoxy-10-(3-hydroxy-phenyl)-3a-methyl-3a,4,9,10-tetrahydro-2,9,10a-triaza-cyclopenta[b]fluorene-1,3-dione], the concentration for a half-maximal effect (EC50) is 39.8 to 251 nM.

Turning to `CCOc1ccc2[nH]c3c(c2c1)C[C@@]1(C)C(=O)N(CCCNC2CC2)C(=O)N1[C@@H]3c1cccc(O)c1` (racemic) [Example 190, (3aSR,10RS)-2-(3-Cyclopropylamino-propyl)-6-ethoxy-10-(3-hydroxy-phenyl)-3a-methyl-3a,4,9,10-tetrahydro-2,9,10a-triaza-cyclopenta[b]fluorene-1,3-dione], the concentration for a half-maximal effect (EC50) is 39.8 to 251 nM.

With `CC(C)(C)NCCN1C(=O)N2[C@H](c3cccc(O)c3)c3[nH]c4ccc(OC(F)F)cc4c3C[C@@]2(C)C1=O` (racemic) [Example 273, (3aSR,10RS)-2-(2-tert-Butylamino-ethyl)-6-(1,1-difluoro-methoxy)-10-(3-hydroxy-phenyl)-3a-methyl-3a,4,9,10-tetrahydro-2,9,10a-triaza-cyclopenta[b]fluorene-1,3-dione], the half-maximal effective concentration (EC50) was not above 39.8 nM.

In the case of `COCCNCCCN1C(=O)N2[C@H](c3cccc(O)c3)c3[nH]c4cc(F)c(OC)cc4c3C[C@@]2(C)C1=O` (racemic) [Example 306, (3aSR,10RS)-7-Fluoro-10-(3-hydroxy-phenyl)-6-methoxy-2-[3-(2-methoxy-ethylamino)-propyl]-3a-methyl-3a,4,9,10-tetrahydro-2,9,10a-triaza-cyclopenta[b]fluorene-1,3-dione], the EC50 is 39.8 to 251 nM.

Regarding `CCN(CCO)CCCN1C(=O)N2[C@H](c3cccc(O)c3)c3[nH]c4cc(F)c(Cl)cc4c3C[C@@]2(C)C1=O` (racemic) [Example 470, (3aSR,10RS)-6-Chloro-2-{3-[ethyl-(2-hydroxy-ethyl)-amino]-propyl}-7-fluoro-10-(3-hydroxy-phenyl)-3a-methyl-3a,4,9,10-tetrahydro-2,9,10a-triaza-cyclopenta[b]fluorene-1,3-dione], the EC50 was not above 39.8 nM.

For the molecule `COc1cc2c3c([nH]c2cc1F)[C@@H](c1cccc(O)c1)N1C(=O)N(CCCN2CC=CCC2)C(=O)[C@]1(C)C3` (racemic) [Example 326, (3aSR,10RS)-2-[3-(3,6-Dihydro-2H-pyridin-1-yl)-propyl]-7-fluoro-10-(3-hydroxy-phenyl)-6-methoxy-3a-methyl-3a,4,9,10-tetrahydro-2,9,10a-triaza-cyclopenta[b]fluorene-1,3-dione], the 50% effective concentration (EC50) was 39.8 to 251 nM.

Regarding `CCOc1ccc2[nH]c3c(c2c1)C[C@@]1(C)C(=O)N(CCCN2CCCCCC2)C(=O)N1[C@@H]3c1cccc(O)c1` (racemic) [Example 210, (3aSR,10RS)-2-(3-Azepan-1-yl-propyl)-6-ethoxy-10-(3-hydroxy-phenyl)-3a-methyl-3a,4,9,10-tetrahydro-2,9,10a-triaza-cyclopenta[b]fluorene-1,3-dione], the concentration for a half-maximal effect (EC50) is 39.8 to 251 nM.

For `CCOc1ccc2[nH]c3c(c2c1)C[C@@]1(C)C(=O)N(CCNCCOC)C(=O)N1[C@@H]3c1cccc(O)c1` (racemic) [Example 160, (3aSR,10RS)-6-Ethoxy-10-(3-hydroxy-phenyl)-2-[2-(2-methoxy-ethylamino)-ethyl]-3a-methyl-3a,4,9,10-tetrahydro-2,9,10a-triaza-cyclopenta[b]fluorene-1,3-dione], the EC50 is 39.8 to 251 nM.

For the molecule `COc1ccc2[nH]c3c(c2c1)C[C@@]1(C)C(=O)N(CCCN2CCN(C(C)=O)CC2)C(=O)N1[C@@H]3c1cccc(O)c1` (racemic) [Example 151, (3aSR,10RS)-2-[3-(4-Acetyl-piperazin-1-yl)-propyl]-10-(3-hydroxy-phenyl)-6-methoxy-3a-methyl-3a,4,9,10-tetrahydro-2,9,10a-triaza-cyclopenta[b]fluorene-1,3-dione], the EC50 is 39.8 to 251 nM.

As to `CCOc1ccc2[nH]c3c(c2c1)C[C@@]1(C)C(=O)N(CCCN(C)CCO)C(=O)N1[C@@H]3c1cccc(O)c1` (racemic) [Example 193, (3aSR,10RS)-6-Ethoxy-2-{3-[(2-hydrox-ethyl)-methyl-amino]-propyl}-10-(3-hydroxy-phenyl)-3a-methyl-3a,4,9,10-tetrahydro-2,9,10a-triaza-cyclopenta[b]fluorene-1,3-dione], the EC50 was 39.8 to 251 nM.

For the molecule `COc1ccc2[nH]c3c(c2c1F)C[C@@]1(C)C(=O)N(CCNC(C)(C)C)C(=O)N1[C@@H]3c1cccc(O)c1` (racemic) [Example 414, (3aSR,10RS)-2-(2-tert-Butylamino-ethyl)-5-fluoro-10-(3-hydroxy-phenyl)-6-methoxy-3a-methyl-3a,4,9,10-tetrahydro-2,9,10a-triaza-cyclopenta[b]fluorene-1,3-dinone], the EC50 was 39.8 to 251 nM.

For the molecule `C[C@@]12Cc3c([nH]c4ccc(OC(F)F)cc34)[C@@H](c3cccc(O)c3)N1C(=O)N(CCN1CC=CCC1)C2=O` (racemic) [Example 281, (3aSR,10RS)-6-(1,1-Difluoro-methoxy)-2-[2-(3,6-dihydro-2H-pyridin-1-yl)-ethyl]-10-(3-hydroxy-phenyl)-3a-methyl-3a,4,9,10-tetrahydro-2,9,10a-triaza-cyclopenta[b]fluorene-1,3-dione], the EC50 is 39.8 to 251 nM.

Turning to `C[C@@]12Cc3c([nH]c4ccc(Cl)cc34)[C@@H](c3cccc(O)c3)N1C(=O)N(CCCN1CCCC1)C2=O` (racemic) [Example 172, (3aSR,10RS)-6-Chloro-10-(3-hydroxy-phenyl)-3a-methyl-2-(3-pyrrolidin-1-yl-propyl)-3a,4,9,10-tetrahydro-2,9,10a-triaza-cyclopenta[b]fluorene-1,3-dione], the EC50 was not above 39.8 nM.

As for `CCOc1ccc2[nH]c3c(c2c1)C[C@@]1(C)C(=O)N(CCN2CCC(C)CC2)C(=O)N1[C@@H]3c1cccc(O)c1` (racemic) [Example 302, (3aSR,10RS)-6-Ethoxy-10-(3-hydroxy-phenyl)-3a-methyl-2-[2-(4-methyl-piperidin-1-yl)-ethyl]-3a,4,9,10-tetrahydro-2,9,10a-triaza-cyclopenta[b]fluorene-1,3-dione], the EC50 was 39.8 to 251 nM.

Regarding `CCOc1ccc2[nH]c3c(c2c1)C[C@@]1(C)C(=O)N(CCN(C)CC)C(=O)N1[C@@H]3c1cccc(O)c1` (racemic) [Example 158, (3aSR,10RS)-6-Ethoxy-2-[2-(ethyl-methyl-amino)-ethyl]-10-(3-hydroxy-phenyl)-3a-methyl-3a,4,9,10-tetrahydro-2,9,10a-triaza-cyclopenta[b]fluorene-1,3-dione], the EC50 was not above 39.8 nM.

For `C[C@@]12Cc3c([nH]c4ccc(OC(F)F)cc34)[C@@H](c3cccc(O)c3)N1C(=O)N(CCNC1CC1)C2=O` (racemic) [Example 286, (3aSR,10RS)-2-(2-Cyclopropylamino-ethyl)-6-(1,1-difluoro-methoxy)-10-(3-hydroxy-phenyl)-3a-methyl-3a,4,9,10-tetrahydro-2,9,10a-triaza-cyclpenta[b]fluorene-1,3-dione], the EC50 was 39.8 to 251 nM.

`CCOc1ccc2[nH]c3c(c2c1)C[C@@]1(C)C(=O)N(CCN(C)C(C)C)C(=O)N1[C@@H]3c1cccc(O)c1` (racemic) [Example 163, (3aSR,10RS)-6-Ethoxy-10-(3-hydroxy-phenyl)-2-[2-(isopropyl-methyl-amino)-ethyl]-3a-methyl-3a,4,9,10-tetrahydro-2,9,10a-triaza-cyclopenta[b]fluorene-1,3-dione]: the EC50 is not above 39.8 nM.
